Test: xn = mol fraction of the nth substance listed
Conditions: 298.15 K, 101 kPa

Row | SMILES | viscosity (x1 = 0.0522) [mPa·s] | viscosity (x1 = 0.1818) [mPa·s] | viscosity (x1 = 0.2982) [mPa·s] | viscosity (x1 = 0.4204) [mPa·s] | viscosity (x1 = 0.4752) [mPa·s] | viscosity (x1 = 0.5937) [mPa·s] | viscosity (x1 = 0.6953) [mPa·s] | viscosity (x1 = 0.7954) [mPa·s] | viscosity (x1 = 0.8933) [mPa·s] | viscosity (x2 = 0.0793) [mPa·s] | viscosity (x2 = 0.1393) [mPa·s] | viscosity (x2 = 0.2058) [mPa·s] | viscosity (x2 = 0.2578) [mPa·s] | viscosity (x2 = 0.345) [mPa·s] | viscosity (x2 = 0.384) [mPa·s] | viscosity (x2 = 0.4122) [mPa·s] | viscosity (x2 = 0.5622) [mPa·s] | viscosity (x2 = 0.688) [mPa·s] | viscosity (x2 = 0.7967) [mPa·s] | viscosity (x2 = 0.8984) [mPa·s]
1 | CCOC(C)=O + CCCC[n+]1ccn(C)c1.O=S(=O)([N-]S(=O)(=O)C(F)(F)F)C(F)(F)F | 44.4 | 30.6 | 21.1 | 13.67 | 10.91 | 6.54 | 3.93 | 2.21 | 1.105 |  |  |  |  |  |  |  |  |  |  | 
2 | CCCC[n+]1ccn(C)c1.O=S(=O)([N-]S(=O)(=O)C(F)(F)F)C(F)(F)F + CCO |  |  |  |  |  |  |  |  |  | 42.6 | 36.8 | 31.4 | 27.3 | 21.6 | 19.4 | 17.91 | 11.15 | 7.11 | 4.36 | 2.46

From a compilation of properties of binary mixtures (doi:10.1007/s10953-010-9507-z)
